Results: article PMC11071649, “Synthesis and Selective Anticancer Activity Evaluation of 2-phenylacrylonitrile Derivatives as Tubulin Inhibitors” (Current Medicinal Chemistry, 2024)

Key:
Type in all cases: cell-based, human
[1] = test system: MCF-10A normal breast cell; experiment: MTT assay, MCF-10A normal cells; settings: 48 h
Protocol: (§1) The anti-proliferation activities of the synthesized analogs were assessed by an in vitro MTT assay conducted on thirteen human cell lines. Their cytotoxic activities were evaluated by measuring the inhibition of net cell growth. […]
(§2) 1.6. Cell lines and cell culture
(§3) MTT was purchased from Sigma-Aldrich Co. (St. Louis, MO, USA). The PI and Annexin V-FITC apoptosis detection kit were purchased from Invitrogen (Eugene, OR, USA). All human cell lines were used in this study. […]
(§4) cell, MCF-7 breast cancer cell, MCF-10A normal breast cell, Raji B lymphoblastoid cell and diffuse large B-cell lymphoma SU-DHL-10 cell were initially purchased from American Type Culture Collection (ATCC, Manassas, Virginia). media, DMEM, and FBS were provided from Gibco Company.
(§5) 1.7. Cell growth inhibition assay (MTT assay)
(§6) The experiment was carried out according to the method of reference. Briefly, cells were plated in 96-well plates at a den- […]
(§7) the anti-proliferative activities were determined by MTT assay. […]
(§8) (Becton-Dickinson, Franklin Lakes, NJ). […]

[2] = test system: BEL-7402 liver cancer cell; experiment: MTT anti-proliferative assay, BEL-7402; settings: for IC50: MTT, 48 h
Protocol: as §1, §2, §3, §4, §5, §6, §7, §8

[3] = test system: HeLa cervical cancer cell; experiment: MTT anti-proliferative assay, HeLa; settings: MTT, 48 h
Protocol: as §1, §2, §3, §4, §5, §6, §7, §8

L-02 normal liver cell = experiment: MTT assay, L-02 normal cells; settings: 48 h
Protocol: as §1, §2, §3, §4, §5, §6, §7, §8

HepG2 hepatoma cell = experiment: MTT anti-proliferative assay, HepG2; settings: for IC50: MTT, 48 h, read-out: IC50 HepG-2
Protocol: as §1, §2, §3, §4, §5, §6, §7, §8

[4] = test system: Raji B lymphoblastoid cell; experiment: MTT anti-proliferative assay, Raji; settings: for IC50: MTT, 48 h, read-out: IC50 Raji
Protocol: as §1, §2, §3, §4, §5, §6, §7, §8

[5] = test system: SGC-7901 early differentiation gastric cancer cell; experiment: MTT anti-proliferative assay, SGC-7901; settings: for IC50: MTT, 48 h
Protocol: as §1, §2, §3, §4, §5, §6, §7, §8

[6] = test system: MGC-803 late stage differentiation gastric cancer cell; experiment: MTT anti-proliferative assay, MGC-803; settings: for IC50: MTT, 48 h
Protocol: as §1, §2, §3, §4, §5, §6, §7, §8

[7] = test system: HCT116 colectal cancer cell; experiment: MTT anti-proliferative assay, HCT116; settings: for IC50: MTT, 48 h, read-out: IC50 HCT-116
Protocol: as §1, §2, §3, §4, §5, §6, §7, §8

AGS gastric cancer cell = experiment: MTT anti-proliferative assay, AGS; settings: for IC50: MTT, 48 h
Protocol: as §1, §2, §3, §4, §5, §6, §7, §8

[8] = test system: diffuse large B-cell lymphoma SU-DHL-10 cell; experiment: MTT anti-proliferative assay, SU-DHL-10; settings: MTT, 48 h; read-out: IC50 SU-DHL-10
Protocol: as §1, §2, §3, §4, §5, §6, §7, §8

MCF-7 breast cancer cell = experiment: MTT anti-proliferative assay, MCF-7; settings: MTT, 48 h
Protocol: as §1, §2, §3, §4, §5, §6, §7, §8

A549 lung cancer cell = experiment: MTT anti-proliferative assay, A549; settings: MTT, 48 h
Protocol: as §1, §2, §3, §4, §5, §6, §7, §8

| Structure (SMILES) | IC50 [1] [µM] | SI (selectivity index), IC50 (L-02)/IC50 (BEL-7402) [2] | IC50 [2] [µM] | IC50 [3] [µM] | IC50 (L-02 normal liver cell) [µM] | SI (selectivity index), IC50 (L-02)/IC50 (HepG-2) (HepG2 hepatoma cell) | IC50 (HepG2 hepatoma cell) [µM] | SI (selectivity index), IC50 (L-02)/IC50 (Raji) [4] | IC50 [4] [µM] | IC50 [5] [µM] | SI (selectivity index), IC50 (L-02)/IC50 (MGC-803) [6] | IC50 [6] [µM] | SI (selectivity index), IC50 (L-02)/IC50 (HCT-116) [7] | IC50 [7] [µM] | SI (selectivity index), IC50 (L-02)/IC50 (AGS) (AGS gastric cancer cell) | IC50 (AGS gastric cancer cell) [µM] | IC50 [8] [µM] | IC50 (MCF-7 breast cancer cell) [µM] | IC50 (A549 lung cancer cell) [µM] | SI (selectivity index), IC50 (L-02)/IC50 (SGC-7901) [5] |
| --- | --- | --- | --- | --- | --- | --- | --- | --- | --- | --- | --- | --- | --- | --- | --- | --- | --- | --- | --- | --- |
| N#C/C(=C\c1ccc(N2CCOCC2)cc1)c1cccc(OC(F)(F)F)c1 [Compound 1b2i] | 79.6 ± 5.7 | > 2.1 | 13 ± 1.1 | > 100 | 28.5 ± 0.8 | > 1.2 | 23.5 ± 4.3 | > 1.1 | 23.7 ± 2.1 | 46 ± 4.9 | > 2.6 | 10.8 ± 2.9 | > 2.3 | 12.3 ± 1.6 | > 1.1 | 23.9 ± 2.7 | 53.6 ± 7.5 | > 100 | > 100 | – |
| COc1ccc(/C=C(\C#N)c2cccc(OC(F)(F)F)c2)cc1 [Compound 1b2j] | > 100 | – | > 100 | > 100 | > 100 | – | > 100 | – | > 100 | 72.1 ± 4.5 | – | > 100 | – | > 100 | – | > 100 | > 100 | > 100 | > 100 | > 1.3 |
| CCCOc1ccc(/C=C(\C#N)c2cccc(OC(F)(F)F)c2)cc1 [Compound 1b2k] | > 100 | – | > 100 | > 100 | > 100 | – | > 100 | – | > 100 | > 100 | – | > 100 | – | > 100 | – | > 100 | > 100 | > 100 | > 100 | – |
| N#C/C(=C\c1ccccn1)c1cccc(OC(F)(F)F)c1 [Compound 1b3a] | 22.7 ± 3.5 | > 5.2 | > 100 | 38.8 ± 3.5 | 35.9 ± 1.6 | – | 21.5 ± 7.6 | – | 56.6 ± 5.8 | 20.9 ± 5.1 | – | 20.7 ± 1.5 | – | 19.3 ± 0.1 | – | 15.4 ± 0.5 | 59.7 ± 0.8 | 25.5 ± 0.4 | 32.6 ± 1.1 | – |
| N#C/C(=C\c1ccccc1)c1ccccc1OC(F)(F)F [Compound 1c2a] | > 100 | – | > 100 | > 100 | > 100 | – | > 100 | – | > 100 | > 100 | – | > 100 | – | > 100 | – | > 100 | > 100 | > 100 | > 100 | – |
| N#C/C(=C\c1ccc(Cl)cc1)c1ccccc1OC(F)(F)F [Compound 1c2b] | > 100 | – | > 100 | > 100 | > 100 | > 1.4 | 70.5 ± 25.4 | – | > 100 | > 100 | > 3.4 | 29 ± 8.3 | – | > 100 | > 3.1 | 31.4 ± 8.3 | > 100 | > 100 | > 100 | – |
| N#C/C(=C\c1ccc(Br)cc1)c1ccccc1OC(F)(F)F [Compound 1c2c] | > 100 | – | > 100 | > 100 | 42.2 ± 11.5 | > 1.5 | 27.9 ± 2.4 | – | 42.4 ± 1.7 | > 100 | > 2.1 | 19.6 ± 6.7 | > 2.4 | 17.2 ± 5.2 | > 2.5 | 16.7 ± 2.3 | > 100 | > 100 | > 100 | – |
